According to patent US20220089575A1, “FARNESOID X RECEPTOR AGONISTS AND USES THEREOF” (Metacrine, Inc., priority 2017, published 2022):

What follows are compounds tested against T1, hFXR (Homo sapiens, UniProt Q96RI1) (assay: In Vitro FXR Assay (TK): TK-ECRE-luc reporter in transfected CV-1 cells). Conditions: 18 hrs, luminescence, maximum efficacy of <25% of the Fexarmine control classified as '+'.
T1 construct: expressed in transfected cells; host or cells: CV-1 cells
T1 sequence (Q96RI1 1-486): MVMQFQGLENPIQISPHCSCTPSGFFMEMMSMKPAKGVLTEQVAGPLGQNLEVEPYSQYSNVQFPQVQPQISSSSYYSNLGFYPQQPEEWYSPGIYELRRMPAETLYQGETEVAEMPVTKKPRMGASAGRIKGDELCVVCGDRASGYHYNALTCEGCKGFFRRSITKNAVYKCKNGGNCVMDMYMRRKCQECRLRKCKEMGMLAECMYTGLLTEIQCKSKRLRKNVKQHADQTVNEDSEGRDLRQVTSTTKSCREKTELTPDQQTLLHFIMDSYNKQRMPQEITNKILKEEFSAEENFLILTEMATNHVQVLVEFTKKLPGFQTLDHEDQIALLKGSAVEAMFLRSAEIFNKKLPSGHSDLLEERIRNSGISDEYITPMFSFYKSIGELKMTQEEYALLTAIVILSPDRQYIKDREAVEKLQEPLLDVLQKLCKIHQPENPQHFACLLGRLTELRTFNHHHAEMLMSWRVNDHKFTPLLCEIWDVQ
T1 sequence (P19793 1-462 partner): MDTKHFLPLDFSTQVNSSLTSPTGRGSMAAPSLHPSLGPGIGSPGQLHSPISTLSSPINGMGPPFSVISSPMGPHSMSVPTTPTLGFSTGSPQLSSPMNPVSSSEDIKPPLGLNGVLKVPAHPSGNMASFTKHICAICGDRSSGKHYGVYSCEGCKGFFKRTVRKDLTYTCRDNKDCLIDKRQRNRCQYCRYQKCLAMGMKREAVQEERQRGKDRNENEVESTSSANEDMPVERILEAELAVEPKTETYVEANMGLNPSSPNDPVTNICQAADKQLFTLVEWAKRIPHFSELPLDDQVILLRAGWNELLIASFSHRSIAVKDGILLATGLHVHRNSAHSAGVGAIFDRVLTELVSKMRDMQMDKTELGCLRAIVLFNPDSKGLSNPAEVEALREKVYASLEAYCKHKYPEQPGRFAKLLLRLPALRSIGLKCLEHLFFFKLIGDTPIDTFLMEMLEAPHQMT
Format: cell-based
Procedure, shortened: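 Luciferase read-out after 18 h compound exposure of CV-1 cells carrying transfected hFXR plus hRXR expression plasmids, TK-ECRE-luc reporter and pCMX-YFP. Cells cultured in charcoal-stripped FBS before transfection; compounds serially diluted in DMSO.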

EC50, ≤ 250 nM:
COc1ccc([C@H]2CC[C@H](CN(c3cc(-c4coc(C5CC5)n4)ccn3)C(=O)[C@H]3CC[C@H](OC(=O)NCC(O)C(C)C)CC3)CC2)nc1C (stereo partly drawn) [Compound 6.89, trans-4-((4-(2-Cyclopropyloxazol-4-yl)pyridin-2-yl)((trans-4-(5-methoxy-6-methylpyridin-2-yl)cyclohexyl)methyl)carbamoyl)cyclohexyl (2-hydroxy-3-methylbutyl)carbamate]
COc1ccc([C@H]2CC[C@H](CN(c3cc(-c4coc(C5CC5)n4)ccn3)C(=O)[C@H]3CC[C@H](OC(=O)NC(C)(C)CO)CC3)CC2)nc1C [Compound 6.90, trans-4-((4-(2-Cyclopropyloxazol-4-yl)pyridin-2-yl)((trans-4-(5-methoxy-6-methylpyridin-2-yl)cyclohexyl)methyl)carbamoyl)cyclohexyl (1-hydroxy-2-methylpropan-2-yl)carbamate]
COc1ccc([C@H]2CC[C@H](CN(c3cc(-c4coc(C(C)C)n4)ccn3)C(=O)[C@H]3CC[C@H](OC(=O)NCC(C)(C)O)CC3)CC2)nc1C [Compound 6.91, trans-4-((4-(2-Isopropyloxazol-4-yl)pyridin-2-yl)((trans-4-(5-methoxy-6-methylpyridin-2-yl)cyclohexyl)methyl)carbamoyl)cyclohexyl (2-hydroxy-2-methylpropyl)carbamate]
COc1ccc([C@H]2CC[C@H](CN(c3cc(-c4cnn(C(C)C)c4)ccn3)C(=O)[C@H]3CC[C@H](OC(=O)NCC(C)(C)O)CC3)CC2)nc1C [Compound 6.92, trans-4-((4-(1-Isopropyl-1H-pyrazol-4-yl)pyridin-2-yl)((trans-4-(5-methoxy-6-methylpyridin-2-yl)cyclohexyl)methyl)carbamoyl)cyclohexyl (2-hydroxy-2-methylpropyl)carbamate]
COc1ccc([C@H]2CC[C@H](CN(c3cc(-c4coc(C5CC5)n4)ccn3)C(=O)[C@H]3CC[C@H](OC(=O)N[C@@H](C)CO)CC3)CC2)nc1C [Compound 6.93, trans-4-((4-(2-Cyclopropyloxazol-4-yl)pyridin-2-yl)((trans-4-(5-methoxy-6-methylpyridin-2-yl)cyclohexyl)methyl)carbamoyl)cyclohexyl ((S)-1-hydroxypropan-2-yl)carbamate]
COc1ccc([C@H]2CC[C@H](CN(c3cc(-c4coc(C5CC5)n4)ccn3)C(=O)[C@H]3CC[C@H](OC(=O)N[C@H](C)CO)CC3)CC2)nc1C [Compound 6.94, trans-4-((4-(2-Cyclopropyloxazol-4-yl)pyridin-2-yl)((trans-4-(5-methoxy-6-methylpyridin-2-yl)cyclohexyl)methyl)carbamoyl)cyclohexyl ((R)-1-hydroxypropan-2-yl)carbamate]
COc1ccc([C@H]2CC[C@H](CN(c3cc(-c4coc(C5CC5)n4)ccn3)C(=O)[C@H]3CC[C@H](OC(=O)NC[C@@H](C)O)CC3)CC2)nc1C [Compound 6.95, trans-4-((4-(2-Cyclopropyloxazol-4-yl)pyridin-2-yl)((trans-4-(5-methoxy-6-methylpyridin-2-yl)cyclohexyl)methyl)carbamoyl)cyclohexyl ((R)-2-hydroxypropyl)carbamate]
COc1ccc([C@H]2CC[C@H](CN(c3cc(-c4coc(C5CC5)n4)ccn3)C(=O)[C@H]3CC[C@H](OC(=O)NC[C@H](C)O)CC3)CC2)nc1C [Compound 6.96, trans-4-((4-(2-Cyclopropyloxazol-4-yl)pyridin-2-yl)((trans-4-(5-methoxy-6-methylpyridin-2-yl)cyclohexyl)methyl)carbamoyl)cyclohexyl ((S)-2-hydroxypropyl)carbamate]
COc1ccc([C@H]2CC[C@H](CN(c3cc(-c4coc(C5CC5)n4)ccn3)C(=O)[C@H]3CC[C@H](OC(=O)N4CC(O)C4)CC3)CC2)nc1C [Compound 7, trans-4-((4-(2-Cyclopropyloxazol-4-yl)pyridine-2-yl)((trans-4-(5-methoxy-6-methylpyridin-2-yl)cyclohexyl)methyl)carbamoyl)cyclohexyl 3-hydroxyazetidine-1-carboxylate]
CN(C)c1ccc([C@H]2CC[C@H](CN(c3cccc(-c4cnc(C5CC5)s4)c3)C(=O)[C@H]3CC[C@H](OC(=O)N4CC(O)C4)CC3)CC2)cn1 [Compound 7.01, trans-4-((3-(2-Cyclopropylthiazol-5-yl)phenyl)((trans-4-(6-(dimethylamino)pyridin-3-yl)cyclohexyl)methyl)carbamoyl)cyclohexyl 3-hydroxyazetidine-1-carboxylate]
COc1ccc([C@H]2CC[C@H](CN(c3cccc(-c4cnc(C5CC5)s4)c3)C(=O)[C@H]3CC[C@H](OC(=O)N4CC(O)C4)CC3)CC2)cc1C [Compound 7.02, trans-4-((3-(2-Cyclopropylthiazol-5-yl)phenyl)((trans-4-(4-methoxy-3-methylphenyl)cyclohexyl)methyl)carbamoyl)cyclohexyl 3-hydroxyazetidine-1-carboxylate]
COc1ccc([C@H]2CC[C@H](CN(c3cc(-c4cnc(C5CC5)s4)ccn3)C(=O)[C@H]3CC[C@H](OC(=O)N4CC(O)C4)CC3)CC2)cc1C [Compound 7.03, trans-4-((4-(2-Cyclopropylthiazol-5-yl)pyridin-2-yl)((trans-4-(4-methoxy-3-methylphenyl)cyclohexyl)methyl)carbamoyl)cyclohexyl 3-hydroxyazetidine-1-carboxylate]
COc1ccc([C@H]2CC[C@H](CN(c3cc(-c4cnc(C(C)C)s4)ccn3)C(=O)[C@H]3CC[C@H](OC(=O)N4CC(O)C4)CC3)CC2)cc1C [Compound 7.04, trans-4-((4-(2-Isopropylthiazol-5-yl)pyridin-2-yl)((trans-4-(4-methoxy-3-methylphenyl)cyclohexyl)methyl)carbamoyl)cyclohexyl 3-hydroxyazetidine-1-carboxylate]
COc1ccc([C@H]2CC[C@H](CN(c3cccc(-c4cnc(C(C)C)s4)c3)C(=O)[C@H]3CC[C@H](OC(=O)N4CC(O)C4)CC3)CC2)nc1C [Compound 7.05, trans-4-((3-(2-Isopropylthiazol-5-yl)phenyl)((trans-4-(5-methoxy-6-methylpyridin-2-yl)cyclohexyl)methyl)carbamoyl)cyclohexyl 3-hydroxyazetidine-1-carboxylate]
COc1ccc([C@H]2CC[C@H](CN(c3cc(-c4cnc(C5CC5)s4)ccn3)C(=O)[C@H]3CC[C@H](OC(=O)N4CC(O)C4)CC3)CC2)nc1C [Compound 7.06, trans-4-((4-(2-Cyclopropylthiazol-5-yl)pyridin-2-yl)((trans-4-(5-methoxy-6-methylpyridin-2-yl)cyclohexyl)methyl)carbamoyl)cyclohexyl 3-hydroxyazetidine-1-carboxylate]
COc1ccc([C@H]2CC[C@H](CN(c3cc(-c4cnc(C(C)C)s4)ccn3)C(=O)[C@H]3CC[C@H](OC(=O)N4CC(O)C4)CC3)CC2)nc1C [Compound 7.07, trans-4-((4-(2-Isopropylthiazol-5-yl)pyridin-2-yl)((trans-4-(5-methoxy-6-methylpyridin-2-yl)cyclohexyl)methyl)carbamoyl)cyclohexyl 3-hydroxyazetidine-1-carboxylate]
COc1ccc([C@H]2CC[C@H](CN(c3cc(-c4cnc(C5CC5)s4)ccn3)C(=O)[C@H]3CC[C@H](OC(=O)N4CC(O)C4)CC3)CC2)cc1C#N [Compound 7.08, trans-4-(((trans-4-(3-Cyano-4-methoxyphenyl)cyclohexyl)methyl)(4-(2-cyclopropylthiazol-5-yl)pyridin-2-yl)carbamoyl)cyclohexyl 3-hydroxyazetidine-1-carboxylate]
COc1ccc([C@H]2CC[C@H](CN(c3cccc(-c4cnc(C5CC5)s4)c3)C(=O)[C@H]3CC[C@H](OC(=O)N4CC(O)C4)CC3)CC2)nc1C#N [Compound 7.09, trans-4-(((trans-4-(6-Cyano-5-methoxypyridin-2-yl)cyclohexyl)methyl)(3-(2-cyclopropylthiazol-5-yl)phenyl)carbamoyl)cyclohexyl 3-hydroxyazetidine-1-carboxylate]
